Among the data in US20170240556A1, “BIFLUORODIOXALANE-AMINO-BENZIMIDAZOLE KINASE INHIBITORS FOR THE TREATMENT OF CANCER, AUTOIMMUNEINFLAMMATION AND CNS DISORDERS” (4SC DISCOVERY GMBH, priority 2012, published 2017) are IC50 values, retold here.

Each structure is given as a SMILES string. Where only a bound is given, the exact number is not on record here.

Test [1] has as its system Hedgehog signaling pathway. Description: Hedgehog reporter assay (Gli Reporter - NIH3T3 Cell Line). It counts as cell-based. The following applies: Mus musculus; Gli reporter NIH3T3 cells, murine SHH stimulation, 24 h; read-out: HH Assay. The method, then:
In order to investigate the potency of test compounds to inhibit the Hedgehog signaling pathway, a Gli-Reporter assay was performed.
The “Gli Reporter—NIH3T3 Cell Line” contains the firefly luciferase gene under the control of Gli responsive elements stably integrated into murine NIH3T3 cells (cells purchased from Amsbio). The luciferase expression correlates with activation of the hedgehog signaling pathway. This cell line is validated for its response to stimulation with murine Sonic Hedgehog and to treatment with inhibitors of the hedgehog signaling pathway. A multiplexed viability assay was used to discriminate inhibition on the pathway activity from cell toxicity.
Growth Medium: DMEM, 10% Calf Serum, 1% Penicillin/Streptomycin 500 μg/ml Geneticin (G418 Stock 50 mg/ml).
25.000 cells per well were seeded into a white 96 well plate in 100 μl growth medium and incubated over night at 37° C. and 5% CO2. After removing the supernatant the test compounds and controls (known GLI inhibitor, e.g. GANT-61) were added in different concentrations in a final volume of 45 μl and incubated for 1 h at 37° C. and 5% CO2. For the stimulation of the Hedgehog pathway 5 μl of 10 μg/ml concentrated murine sonic hedgehog (SHH) was added to the cells. A final concentration of 1 μg/ml mSHH and 0.1% DMSO was reached per well. After incubation for 24 h at 37° C. the cells were investigated for viability and reporter activity.
Viability: For the determination of the viability of the treated cells the CellTiter-Fluor Kit from Promega was used. Essentially, only proteases of viable cells are able to cleave the cell-permeant substrate Gly-Phe-AFCoumarin (GF-AFC). By this cleavage the fluorescent AFC is set free and can be detected in a fluorescence reader. For this assay 10 μl of GF-AFC substrate (CellTiter-Fluor, Promega #G6082) was diluted in 2 ml assay buffer from the CellTiter-Fluor Kit and 10 μl of this dilution was added per well to the cells and incubated for 30 min at 37° C. The fluorescence was measured with excitation at 380-400 nm and emission at 505 nm.
Reporter activity: The firefly luciferase reporter activity was detected with the ONE-Glo™ Luciferase Assay System from Promega. For this assay 50 μl ONE-Glo luciferase reagent (Promega #E6120, contains cell lysis buffer and luciferin) was added to each well and incubated at room temperature for 5 min. Luminescence was detected in a plate reader and served as a degree for reporter activity.
For orientation: A reporter such as luciferase makes a cellular process visible.

Test [2] has as its system Wnt/β-catenin signaling pathway. Description: Wnt reporter assay (CellSensor LEF/TCF-bla FreeStyle 293F cells). It counts as cell-based. To be noted: Homo sapiens; LEF/TCF-bla 293F cells, LiCl and mWnt3a stimulation. The method, then: The Wnt reporter assay was performed in stably transfected human HEK293 cells. Wnt signaling was induced by administration of Wnt3a protein and read out by β-Lactamase mediated cleavage of CCF4-AM and subsequent fluorescent detection.
CellSensor LEF/TCF-bla FreeStyle 293F cells (invitrogen #K1677) contain a beta-lactamase reporter gene under control of the β-catenin/LEF/TCF binding elements stably integrated into FreeStyle 293F cells. This cell line can be used to detect antagonists of the Wnt/β-catenin signaling pathway when stimulated by mouse Wnt3a or LiCl. The detection of beta-lactamase is possible with LiveBLAzer FRET—B/G Loading Kit (invitrogen #K1095) with CCF4-AM as subtrate.
Culture Medium: DMEM Medium +10% dialyzed FBS (PAN 2102-P290310), +1% NEAA (PAA M11-003), +1% P/S (Penicillin/Streptomycin, PAA P11-010) +25 mM HEPES (PAA S11-001), +5 μg/ml Blasticidin (PAA P05-017).
Cells (CellSensor LEF/TCF-bla FreeStyle 293F, invitrogen K1677) were split with Culture Medium to reach a confluence at the beginning of the assay of 80-90%.
At start of the assay, cells were harvested from culture and resuspend in assay medium at density of 0,66*10̂6 cells/ml. Subsequently, 60μ1 cell suspension were pipetted in each well of a Poly-D-Lysine 96 well Plate (BD #354640, vertical rows are marked 1 through 12, horizontal lanes are marked A through H),
Plates were subsequently incubated at 37° C. for at least 2 h.
To stimulate with Wnt3a, overnight prestimulation of Wnt signalling pathway with LiCl is necessary. Subsequently, an 8M aqueous LiCl solution was diluted 1:200 in assay medium, and 30 μl of said diluted LiCl solution was plated into the appropriate wells (see below pipetting scheme). Plates were then incubated at 37° C. over night.
Subsequently, compounds and controls were prepared as follows: mWnt3a (R&D 1324-WN, dissolved in PBS+0.1% BSA to 40 μg/ml) was diluted 1:100 in assay medium (=400 ng/ml). Compounds (Cpd) were diluted to a concentration of 10 mM in DMSO to prepare dilution series in assay medium (final concentrations 30 μM, 10 μM, 3 μM, 1 μM, 0.3 μM, 0.1 μM, 0.03 μM and 0.01 μM), which were pipetted into the appropriate wells (see below pipetting scheme). For each dilution of each compound, 3 replicates were tested. Final DMSO concentration was 0.3%.
LiCl and mWnt3a stimulated cells were used as High control (HC), unstimulated cells were used as low control, a blank was prepared from cell free medium plus mWnt3a, and a functional control was prepared with a known Wnt inhibitor (e.g. PKF118-310), final concentrations were as above.
Subsequently, the well was incubated for 5 h at 37° C.
At t=23 hours, FRET reagent mix (Loading Kit with CCF4-AM, Life Technologies #K1096) was prepared; per plate: 138 μl Solution B, 13.8 μl FRET-reagent, and 2300 μl Solution C. 24 μl FRET reagent mix were plated to each well, subsequently plates were incubated for at least 2 h in the dark (it is possible to incubate over night). Subsequently, plates were measured in the BMG FluorStar® plate reader at an emission waveltengths of 460 and 520 nm and with an excitation wavelength of 405 nm.
To determine potential cytotoxicity of the compounds, plates were centrifuge and the supernatant was discarded by dumping the plates. Subsequently, 100 μl Opti-MEM and 50 μl ViaLight (Lonza #LT07-321) Lysis Buffer were added to each well, followed by incubation for 10 min at room temperature (25° C.). Subsequently, 100 μl ViaLight reagent were added to each well, followed by incubation for 2 min at room temperature (25° C.) in the dark. Optionally, 200 μl of the obtained suspension were transferred to a white 96 well plate. The luminescence was measured with a Tecan Ultra plate reader.

As to `COc1cccc(C(=O)Nc2nc3cc4c(cc3[nH]2)OC(F)(F)O4)c1` [Compound 56, N-(2,2-difluoro-5H-[1,3]dioxolo[4′,5′:4,5]benzo[1,2-d]imidazol-6-yl)-3-methoxybenzamide], the IC50 in test [1] was ≤ 500 nM; in test [2], < 5000 nM.
